In patent US9790233B2, “Compositions and methods of modulating 15-PGDH activity” (CASE WESTERN RESERVE UNIVERSITY, priority 2012, dated 2017):

Assays:
[1] = test system: bone marrow; assay: Bone marrow analysis of treated C57BL/6J mice; assay type: in vivo; conditions: IP 5 mg/kg or 20 mg/kg
From the text: FIGS. […] Experimental conditions are noted on the figure.

[2] = test system: colon; assay: Dextran sodium sulfate (DSS) induced colitis; assay type: in vivo, FVB mice
[3] = test system: CD45.2 marked marrow; assay: Competitive bone marrow transplant, blood chimerism; assay type: in vivo, C57BL/6J mice; conditions: donors 5 mg/kg IP daily for 3 doses; weeks 12 and 16
Experimental: On day 3 mice were sacrificed, marrow flushed and mixed at a 1:1 ratio with vehicle treated CD45.1 marrow. 2 million whole BM cells were injected into the tail vein of lethally irradiated CD45.1 mice and percent chimerism measured via flow cytometry at weeks 8, 12, 16.

[4] = Survival after whole body irradiation; assay type: in vivo, C57BL/6J mice
[5] = Survival following acetaminophen (Tylenol) overdose; assay type: in vivo, C57BL/6J mice

Structure (SMILES): CCCC[S+]([O-])c1sc2nc(-c3cccs3)cc(-c3ccccc3)c2c1N (centres unmarked) [SW033291, 2-(butylsulfinyl)-4-phenyl-6-(thiophen-2-yl)thieno[2,3-b]pyridin-3-amine]
- percent of SKL cells [1]: unchanged
- change from baseline weight versus control ([2]; 22 days): greater weight at all time points
- ulcer formation prevented ([2]; colonoscopy days 8, 11, 15): two-thirds
- reduction of length of ulcerated mucosa ([2]; day 15): 61%
- body weight and colon length versus control ([2]; day 22): greater body weight and greater colon lengths
- MEICS scores versus control ([2]; days 8, 11 and 15): significantly less colitis activity
- percent blood chimerism of CD45.2 marked cells [3]: significantly increased
- number of mice surviving ([4]; 7 Gy, 5 mg/kg IP daily for 7 doses, Day 5): 3
- number of mice surviving ([4]; 7 Gy, Day 6): 3
- number of mice surviving ([4]; 7 Gy, Day 7): 3
- number of mice surviving ([4]; 7 Gy, Day 8): 3
- number of mice surviving ([4]; 7 Gy, Day 9): 3
- number of mice surviving ([4]; 7 Gy, Day 10): 3
- number of mice surviving ([4]; 7 Gy, Day 11): 3
- number of mice surviving ([4]; 7 Gy, Day 12): 3
- number of mice surviving ([4]; 7 Gy, Day 13): 3
- number of mice surviving ([4]; 7 Gy, Day 14): 3
- number of mice surviving ([4]; 7 Gy, Day 15): 3
- appearance of surviving mice ([4]; 7 Gy, Day 25 (cell wraps: Looks / Healthy)): Looks
- number of mice surviving ([4]; 9 Gy, 5 mg/kg IP daily for 7 doses, Day 5): 3
- number of mice surviving ([4]; 9 Gy, Day 6): 3
- number of mice surviving ([4]; 9 Gy, Day 7): 3
- number of mice surviving ([4]; 9 Gy, Day 8): 3
- number of mice surviving ([4]; 9 Gy, Day 9): 3
- number of mice surviving ([4]; 9 Gy, Day 10): 3
- number of mice surviving ([4]; 9 Gy, Day 11): 3
- number of mice surviving ([4]; 9 Gy, Day 12): 2
- number of mice surviving ([4]; 9 Gy, Day 13): 2
- number of mice surviving ([4]; 9 Gy, Day 14): 1
- number of mice surviving ([4]; 9 Gy, Day 15): 0
- number of mice surviving ([4]; 11 Gy, 5 mg/kg 1 dose/daily for 7 days, Day 5): 3
- number of mice surviving ([4]; 11 Gy, 5 mg/kg 1 dose/daily, continuous every day, Day 5): 3
- number of mice surviving ([4]; 11 Gy, 5 mg/kg IP daily for 7 doses, Day 5): 3
- number of mice surviving ([4]; 11 Gy, 5 mg/kg, 7 days, 2 dose daily, Day 5): 3
- number of mice surviving ([4]; 11 Gy, 1 dose/daily for 7 days, Day 6): 3
- number of mice surviving ([4]; 11 Gy, 1 dose/daily for 7 days, Day 7): 3
- number of mice surviving ([4]; 11 Gy, 1 dose/daily for 7 days, Day 8): 2
- number of mice surviving ([4]; 11 Gy, 1 dose/daily for 7 days, Day 9): 1
- number of mice surviving ([4]; 11 Gy, 1 dose/daily for 7 days, Day 10): 0
- number of mice surviving ([4]; 11 Gy, 1 dose/daily, continuous every day, Day 6): 3
- number of mice surviving ([4]; 11 Gy, 1 dose/daily, continuous every day, Day 7): 3
- number of mice surviving ([4]; 11 Gy, 1 dose/daily, continuous every day, Day 8): 3
- number of mice surviving ([4]; 11 Gy, 1 dose/daily, continuous every day, Day 9): 2
- number of mice surviving ([4]; 11 Gy, 1 dose/daily, continuous every day, Day 10): 0
- number of mice surviving ([4]; 11 Gy, 7 days, 2 dose daily, Day 6): 3
- number of mice surviving ([4]; 11 Gy, 7 days, 2 dose daily, Day 7): 3
- number of mice surviving ([4]; 11 Gy, 7 days, 2 dose daily, Day 8): 3
- number of mice surviving ([4]; 11 Gy, 7 days, 2 dose daily, Day 9): 2
- number of mice surviving ([4]; 11 Gy, 7 days, 2 dose daily, Day 10): 0
- number of mice surviving ([4]; 11 Gy, Table 7, Day 6): 3
- number of mice surviving ([4]; 11 Gy, Table 7, Day 7): 3
- number of mice surviving ([4]; 11 Gy, Table 7, Day 8): 3
- number of mice surviving ([4]; 11 Gy, Table 7, Day 9): 2
- number of mice surviving ([4]; 11 Gy, Table 7, Day 10): 0
- longer survival than vehicle control, on average ([4]; 11 Gy, any of the dosing schedules): 1 to 2 days
- number of mice surviving ([5]; 1 dose/daily, first dose immediately after Tylenol, 24 hrs): 6
- number of mice surviving ([5]; 2 dose/daily, first dose immediately after Tylenol, 24 hrs): 6
- number of mice surviving ([5]; 2 dose/daily, first dose immediately after Tylenol, 48 hrs): 3
- number of mice surviving ([5]; 2 dose/daily, first dose immediately after Tylenol, 64 hrs): 3
- number of mice surviving ([5]; 2 dose/daily, first dose immediately after Tylenol, 72 hrs): 3
- number of mice surviving ([5]; 2 dose/daily, first dose immediately after Tylenol, 88 hr): 3
- number of mice surviving ([5]; 2 dose/daily, first dose immediately after Tylenol, 96 hr): 3
- number of mice surviving ([5]; 2 dose/daily, first dose immediately after Tylenol, 112 hr): 3
- number of mice surviving ([5]; 2 dose/daily, first dose immediately after Tylenol, 120 hr): 3
- number of mice surviving ([5]; acetaminophen 600 mg/kg, 5 mg/kg 1 dose/daily, first dose immediately after Tylenol injection, 16 hr): 6
